One experiment addresses T1, P2X7 receptor (Homo sapiens, UniProt Q99572).
T1 construct: host or cells: THP-1 cells differentiated with LPS and IFN-γ
T1 sequence (Q99572 1-595): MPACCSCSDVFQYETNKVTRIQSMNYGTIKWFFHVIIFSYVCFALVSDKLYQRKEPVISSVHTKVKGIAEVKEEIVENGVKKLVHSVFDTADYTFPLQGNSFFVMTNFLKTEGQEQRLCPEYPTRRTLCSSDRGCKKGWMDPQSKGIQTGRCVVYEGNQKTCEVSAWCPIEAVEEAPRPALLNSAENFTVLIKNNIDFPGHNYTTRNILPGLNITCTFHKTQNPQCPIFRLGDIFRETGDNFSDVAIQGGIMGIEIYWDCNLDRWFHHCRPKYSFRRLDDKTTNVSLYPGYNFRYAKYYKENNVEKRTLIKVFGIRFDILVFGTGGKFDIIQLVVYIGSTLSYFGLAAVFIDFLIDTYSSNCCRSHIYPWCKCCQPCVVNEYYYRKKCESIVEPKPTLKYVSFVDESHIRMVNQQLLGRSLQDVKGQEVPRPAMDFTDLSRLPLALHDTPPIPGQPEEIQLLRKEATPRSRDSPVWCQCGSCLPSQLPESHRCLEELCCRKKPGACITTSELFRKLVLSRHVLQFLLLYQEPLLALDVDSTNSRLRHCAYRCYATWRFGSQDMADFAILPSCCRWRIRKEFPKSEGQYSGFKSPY
The experiment is described as follows: Alternate method for IL-1β release assay (differentiated THP-1 cells, BzATP-stimulated, ELISA). It is filed as cell-based. The settings on record: P2X7, read-out: IL-1β % inhib @ 0.3 μM. The protocol: Alternate Method for IL-1β Release Assay
THP-1 cells (ATCC Cat #285-IF-100) are plated in 96 well plates at a concentration of 200,000 cells per well and allowed to differentiate in RPMI-1640 media (ATCC Cat #30-2001) containing 10% FBS, 100 IU/mL penicillin, 100 ug/mL streptomycin, 100 ng/mL LPS and 100 ng/mL IFN-γ for 16 hours. Following differentiation, the cells are treated for an additional 2 hours in RPMI-1640 media containing 100 IU/mL penicillin, 100 ug/mL streptomycin and fresh LPS at 100 ng/mL. The cells are then pretreated for 30 minutes with the compound of interest at the appropriate concentration in RPMI media containing 100 IU/mL penicillin, 100 ug/mL streptomycin. Following the pretreatment 2′,3′-O-(4-benzoylbenzoyl)-adenosine 5′-triphosphate (Sigma Aldrich Cat# B6396) is added to a final concentration of 250 uM and the cells incubated for an additional 45 minutes. 30 uL of cell supernatant is then collected and IL-1β levels determined via ELISA (R&D systems Cat. # HSLB50) according to manufacturers recommendations using the Tecan Safire plate reader. Background adjusted IL-1β levels of drug treated and non-treated cells are used to calculate the percent inhibition.
With `O=S(=O)(c1ccccc1)N1CCc2c(ncnc2NCC23CC4CC(CC(C4)C2)C3)C1` [Compound 4, Adamantan-1-ylmethyl-(7-benzenesulfonyl-5,6,7,8-tetrahydro-pyrido[3,4-d]pyrimidin-4-yl)-amine], the inhibition at 0.3 µM was 50 to 75%.

Still in this experiment, the particulars now being: P2X7; 0.1 μM compound (plus symbols); read-out: IL-1β % inhib @ 0.1 μM.
On to `O=S(=O)(c1ccc(F)cc1F)N1CCc2c(ncnc2NCC23CC4CC(CC(C4)C2)C3)C1` [Compound 66], for which the inhibition at 0.1 µM was 25 to 50%.
Regarding `O=C(c1ccc(F)cc1)N1CCc2c(ncnc2NCC23CC4CC(CC(C4)C2)C3)C1` [Compound 106], the inhibition at 0.1 µM was greater than 75%.
On the same count and under the same terms, under `O=C(COc1ccccc1)N1CCc2c(ncnc2NCC23CC4CC(CC(C4)C2)C3)C1` [Compound 104] stands 50 to 75%; under `c1ccc(CN2CCc3c(ncnc3NCC34CC5CC(CC(C5)C3)C4)C2)cc1` [Compound 1, Adamantan-1-ylmethyl-(7-benzyl-5,6,7,8-tetrahydro-pyrido[3,4-d]pyrimidin-4-yl)-amine], greater than 75%.

The same experiment, now with this note: P2X7; 0.1 μM compound (symbols + to ++++); read-out: IL-1β % inhib @ 0.1 μM.
Take `O=C(OCc1ccco1)N1CCc2c(ncnc2NCC23CC4CC(CC(C4)C2)C3)C1` [Compound 336]: the inhibition at 0.1 µM is greater than 75%.
On the same count and under the same terms, with `O=C(OCc1ccccc1Cl)N1CCc2c(ncnc2NCC23CC4CC(CC(C4)C2)C3)C1` [Compound 339] the figure was greater than 75%.
With `O=C(OCc1ncoc1-c1ccccc1)N1CCc2c(ncnc2NCC23CC4CC(CC(C4)C2)C3)C1` [Compound 346], the inhibition at 0.1 µM is 0 to 25%.
Still for that read-out and setting: with `Cc1cc(COC(=O)N2CCc3c(ncnc3NCC34CC5CC(CC(C5)C3)C4)C2)nn1C` [Compound 347] the figure was 50 to 75%; with `O=C(SCc1c(F)cccc1Cl)N1CCc2c(ncnc2NCC23CC4CC(CC(C4)C2)C3)C1` [Compound 344], 25 to 50%; with `O=C(COc1ccc(OC(F)(F)F)cc1)N1CCc2c(ncnc2NCC23CC4CC(CC(C4)C2)C3)C1` [Compound 251, 1-{4-[(Adamantan-1-ylmethyl)-amino]-5,8-dihydro-6H-pyrido[3,4-d]pyrimidin-7-yl}-2-(4-trifluoromethoxy-phenoxy)-ethanone], 0 to 25%.

The same experiment, now with this note: P2X7; 0.3 μM compound (asterisk symbols); read-out: IL-1β % inhib @ 0.3 μM.
For the molecule `c1nc2c(c(NCC34CC5CC(CC(C5)C3)C4)n1)CCN(Cc1ccc3c(c1)OCO3)C2` [Compound 175], the inhibition at 0.3 µM fell in the range of 25 to 50%.
Consider `O=S(=O)(c1cccc(C(F)(F)F)c1)N1CCc2c(ncnc2NCC23CC4CC(CC(C4)C2)C3)C1` [Compound 15], for which the inhibition at 0.3 µM was 0 to 25%.
The same measure, in the same setting: under `O=S(=O)(c1ccc2c(c1)OCCO2)N1CCc2c(ncnc2NCC23CC4CC(CC(C4)C2)C3)C1` [Compound 57] stands 50 to 75%; under `O=C(c1cccc(Cl)c1Cl)N1CCc2c(ncnc2NCC23CC4CC(CC(C4)C2)C3)C1` [Compound 137], greater than 75%; under `O=C(c1ccc(Cl)nc1)N1CCc2c(ncnc2NCC23CC4CC(CC(C4)C2)C3)C1` [Compound 136], 0 to 25%.
Still for that read-out and setting: with `CN1CCOc2cc(S(=O)(=O)N3CCc4c(ncnc4NCC45CC6CC(CC(C6)C4)C5)C3)ccc21` [Compound 17] the figure was 0 to 25%.
On the same count and under the same terms, with `COc1ccc(C(=O)N2CCc3c(ncnc3NCC34CC5CC(CC(C5)C3)C4)C2)cc1` [Compound 90] the figure was 0 to 25%; with `N#Cc1ccc(S(=O)(=O)N2CCc3c(ncnc3NCC34CC5CC(CC(C5)C3)C4)C2)cc1` [Compound 25], 25 to 50%.
Take `COc1ccc(Oc2ccc(S(=O)(=O)N3CCc4c(ncnc4NCC45CC6CC(CC(C6)C4)C5)C3)cc2)cc1` [Compound 32]: the inhibition at 0.3 µM was 0 to 25%.
On the same count and under the same terms, with `N#Cc1ccc(S(=O)(=O)N2CCc3c(ncnc3NCC34CC5CC(CC(C5)C3)C4)C2)c(Cl)c1` [Compound 23] the figure was 0 to 25%; with `N#Cc1cccc(CN2CCc3c(ncnc3NCC34CC5CC(CC(C5)C3)C4)C2)c1` [Compound 182], greater than 75%; with `COc1ccc(S(=O)(=O)N2CCc3c(ncnc3NCC34CC5CC(CC(C5)C3)C4)C2)cc1OC` [Compound 12], 25 to 50%.
As to `O=C(c1ccc(C(F)(F)F)cc1)N1CCc2c(ncnc2NCC23CC4CC(CC(C4)C2)C3)C1` [Compound 98], the inhibition at 0.3 µM was 25 to 50%.
Still for that read-out and setting: under `c1ccc(Oc2cccc(CN3CCc4c(ncnc4NCC45CC6CC(CC(C6)C4)C5)C3)c2)cc1` [Compound 179] stands 25 to 50%; under `O=S(=O)(c1ccccc1C(F)(F)F)N1CCc2c(ncnc2NCC23CC4CC(CC(C4)C2)C3)C1` [Compound 51], 0 to 25%.
Same read-out and setting: under `Cc1cc(C(=O)N2CCc3c(ncnc3NCC34CC5CC(CC(C5)C3)C4)C2)c(C)o1` [Compound 146] stands greater than 75%; under `O=C(c1ccc(F)c(F)c1)N1CCc2c(ncnc2NCC23CC4CC(CC(C4)C2)C3)C1` [Compound 88], greater than 75%.
In the case of `Cc1ccc(S(=O)(=O)N2CCc3c(ncnc3NCC34CC5CC(CC(C5)C3)C4)C2)cc1Cl` [Compound 64], the inhibition at 0.3 µM was in the range of 25 to 50%.

The same experiment, now with this note: P2X7; 0.3 μM compound (symbols * to ****); read-out: IL-1β % inhib @ 0.3 μM.
Consider `CC(C)(C)CN1CCc2c(ncnc2NCC23CC4CC(CC(C4)C2)C3)C1` [Compound 211], for which the inhibition at 0.3 µM was greater than 75%.
Turning to `COc1ccc(CN2CCc3c(ncnc3NCC34CC5CC(CC(C5)C3)C4)C2)cc1O` [Compound 204], the inhibition at 0.3 µM is 0 to 25%.
`O=C(CN1CCN(Cc2ccccc2)CC1)N1CCc2c(ncnc2NCC2C3CC4CC(C3)CC2C4)C1` (stereo not shown) [Compound 271]: the inhibition at 0.3 µM was in the range of 0 to 25%.
Still for that read-out and setting: under `c1cc(CN2CCc3c(ncnc3NCC34CC5CC(CC(C5)C3)C4)C2)ccn1` [Compound 221] stands greater than 75%; under `O=C(CN1CCOCC1)N1CCc2c(ncnc2NCC2C3CC4CC(C3)CC2C4)C1` (stereo not shown) [Compound 272], 0 to 25%.
The same measure, in the same setting: under `FC(F)(F)Oc1ccc(CN2CCc3c(ncnc3NCC34CC5CC(CC(C5)C3)C4)C2)cc1` [Compound 231] stands 0 to 25%; under `CN(CCC#N)CC(=O)N1CCc2c(ncnc2NCC2C3CC4CC(C3)CC2C4)C1` (stereo not shown) [Compound 277], 0 to 25%; under `CCCCN(C)CC(=O)N1CCc2c(ncnc2NCC2C3CC4CC(C3)CC2C4)C1` (stereo not shown) [Compound 288], 50 to 75%.
Same read-out and setting: with `COCCN(C)CC(=O)N1CCc2c(ncnc2NCC2C3CC4CC(C3)CC2C4)C1` (stereo not shown) [Compound 304] the figure was 25 to 50%; with `Brc1ccc(CN2CCc3c(ncnc3NCC34CC5CC(CC(C5)C3)C4)C2)cn1` [Compound 224], 0 to 25%.
In the case of `O=C(CN1CCC(N2CCOCC2)CC1)N1CCc2c(ncnc2NCC2C3CC4CC(C3)CC2C4)C1` (stereo not shown) [Compound 299], the inhibition at 0.3 µM lay in the range of 25 to 50%.
On the same count and under the same terms, under `CC(C)N(C)CC(=O)N1CCc2c(ncnc2NCC2C3CC4CC(C3)CC2C4)C1` (stereo not shown) [Compound 313] stands 0 to 25%; under `Brc1ccccc1CN1CCc2c(ncnc2NCC23CC4CC(CC(C4)C2)C3)C1` [Compound 228], 0 to 25%; under `c1nc2c(c(NCC34CC5CC(CC(C5)C3)C4)n1)CCN(CC1CCCC1)C2` [Compound 230], greater than 75%.
Same read-out and setting: under `O=C(CN1CCC(C(F)(F)F)CC1)N1CCc2c(ncnc2NCC2C3CC4CC(C3)CC2C4)C1` (stereo not shown) [Compound 300] stands 0 to 25%; under `COc1cc(F)c(CN2CCc3c(ncnc3NCC34CC5CC(CC(C5)C3)C4)C2)cc1OC` [Compound 234], 0 to 25%; under `CN(C)CCCN(C)CC(=O)N1CCc2c(ncnc2NCC2C3CC4CC(C3)CC2C4)C1` (stereo not shown) [Compound 276], 0 to 25%.
Take `O=C(CN1CCN(c2ccccc2)CC1)N1CCc2c(ncnc2NCC23CC4CC(CC(C4)C2)C3)C1` [Compound 259]: the inhibition at 0.3 µM fell in the range of 50 to 75%.
As for `CCOc1cccc(CN2CCc3c(ncnc3NCC34CC5CC(CC(C5)C3)C4)C2)c1` [Compound 236], the inhibition at 0.3 µM fell in the range of 50 to 75%.

Staying with this experiment, now noted: P2X7; at 0.03 μM (asterisk symbols); read-out: IL-1β % inhib @ 0.3 μM or @ 0.03 μM.
For the molecule `C[C@H](N)C(=O)N1CCc2c(ncnc2NCC(O)C23CC4CC(CC(C4)C2)C3)C1` (stereo partly drawn) [Compound 713, (S)-1-[4-(2-Adamantan-1-yl-2-hydroxy-ethylamino)-5,8-dihydro-6H-pyrido[3,4-d]pyrimidin-7-yl]-2-amino-propan-1-one], the inhibition at 0.03 µM was in the range of 0 to 25%.

Values taken from US20100022531A1, “NOVEL COMPOUNDS AS P2X7 MODULATORS AND USES THEREOF” (RENOVIS, INC., priority 2005, published 2010).
